Like-named read-outs stand apart in the source and are kept apart here. Numbered stars: 1 amine (or outer) side, 2 acyl side, 3 side chain; on linkers, the order of the positions; unused ones are H or OH. Bridge positions count the residues as written; N and C are the ends. Square brackets hold non-standard residues; d marks the D form. Peptide text beside a SMILES is read from it. * marks the point of attachment. TATA = O=C(CC[*:1])N1CN(C(=O)CC[*:2])CN(C(=O)CC[*:3])C1; X1 = O=C(O)CN1CCN(CC(=O)O)CCN([C@H](CCC(=O)*)C(=O)O)CC1; 1Nal = N[C@@H](Cc1cccc2ccccc12)C(=O)O; Hyp = O=C(O)[C@@H]1C[C@@H](O)CN1; hArg = N=C(N)NCCCC[C@H](N)C(=O)O; hSer = N[C@@H](CCO)C(=O)O; Nle = CCCC[C@H](N)C(=O)O
Tests used:
[1] = target: T1, recombinant human nectin-4 (Homo sapiens, UniProt Q96NY8); assay: FA-based competitive binding assay with probe 1a; details: for Hill coefficient n: competitive binding curve, variable slope; for fold lower binding affinity compared to 1e: FA K d ratio
T1 construct: close to the value determined for the complete extracellular domain of nectin-4 (0.94 nM); purchased R&D Systems 2659-N4
T1 sequence (Q96NY8 32-349 limits assumed): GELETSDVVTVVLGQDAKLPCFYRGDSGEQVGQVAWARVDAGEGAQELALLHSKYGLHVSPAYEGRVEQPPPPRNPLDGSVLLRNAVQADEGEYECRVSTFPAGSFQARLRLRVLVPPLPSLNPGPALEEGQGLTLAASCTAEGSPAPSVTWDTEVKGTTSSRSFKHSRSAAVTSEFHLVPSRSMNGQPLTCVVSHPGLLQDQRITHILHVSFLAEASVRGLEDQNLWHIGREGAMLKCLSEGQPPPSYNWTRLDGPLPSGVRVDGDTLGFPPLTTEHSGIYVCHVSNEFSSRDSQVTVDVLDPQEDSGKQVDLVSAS
Protocol: For the competitive binding assay, a constant concentration of probe 1a (1 nM) and of nectin-4 (20 nM) was used, and the concentration of the competitors was varied over at least 3 orders of magnitude. […] Analysis of the curves by nonlinear regression according to dose–response inhibition with variable slope, as implemented in GraphPad Prism (see Experimental section), provided the IC50 value for displacing the probe from nectin-4.
All measurements were conducted at 37 °C over 1200 s (interval of 37 s) using a Cytation 5 multimode microplate reader (BioTek Instruments, Software Gen 5) and black 96-well microplates (BRANDplates with F-bottom wells). Experiments were conducted at an excitation wavelength of 540 nm and an emission wavelength of 620 nm. The FA (r) was calculated by Gen 5 software from the measured parallel and perpendicular fluorescence intensities (I ∥ and I ⊥, respectively) according to eq using a G factor of 0.87 (preset value). r=I∥−G×I⊥/I∥+2G×I⊥ 1
All further data analyses were conducted with GraphPad Prism (version 10.4.1, GraphPad Software, San Diego, CA, USA). The assay mixture (100 μL) contained an aqueous solution (99 μL) and DMSO (1%, v/v, 1 μL).
For the competitive binding assay, fixed concentrations of probe 1a (1 nM) and recombinant human nectin-4 (20 nM) and 10 concentrations of nonlabeled peptide (e.g., […] prepared as serial 1:1 dilution) were used (two separate experiments, each performed in duplicate). The corresponding stock solutions of 1a (2.5 nM) and nectin-4 (50 nM) were prepared in HEPES buffer, while the stock solutions of the nonlabeled peptides were prepared in 5% DMSO/HEPES buffer. nectin-4 (40 μL) and 1a (40 μL) were added to the wells, and the competition was started by the addition of the nonlabeled peptides (20 μL). The FA values were averaged over the time period of 1200 s, and plots of FA = f([peptide]) were analyzed by nonlinear regression according to the model “[inhibitor] vs. response – Variable slope (four parameters)” as implemented in GraphPad Prism. […] Therefore, the lower FA plateau was constrained to the FA value of probe 1a in the absence of nectin-4 and the competitor, which was recorded in each experiment.

[2] = target: T2, immobilized human nectin-4 (Homo sapiens, UniProt Q96NY8); assay: SPR analysis of binding kinetics; details: for kon / koff: ±SEM; for kon: read-out: k on (SPR, *10^6 M^–1 s^–1); for koff: read-out: k off (SPR, *10^–3 s^–1)
T2 construct: close to the value determined for the complete extracellular domain of nectin-4 (0.94 nM); purchased R&D Systems 2659-N4
T2 sequence (Q96NY8 32-349 limits assumed): T1 sequence (Q96NY8 32-349 limits assumed)
Protocol: For this purpose, recombinant human nectin-4 was covalently immobilized on a CM5 sensor chip by EDC/NHS coupling. For analyses, the buffer composition (HBS-P+, pH 7.4) was similar to that of the FA assay; however, DMSO was completely omitted (1% DMSO for the FA assay).
The SPR analyses were carried out on a Biacore T200 (GE Healthcare, Chicago, IL, USA) at 25 °C using CM5 sensor chips (Cytiva) and HBS-P+ as running buffer (Cytiva) at a flow of 30 μL/min unless otherwise specified and a data collection rate of 10 Hz. All flow cells (FC) were normalized, and functionalization was performed using an amine coupling Kit (Cytiva). […] Binding analyses were performed by a single-cycle kinetic on both FC. Two start-up cycles were performed at the beginning of each experimental set, comprising the injection of bicyclic peptide (50 nM) and analysis on both FC, followed by regeneration. Binding analysis for the bicyclic peptides was performed by consecutive injection of five increasing concentrations (120 s contact time for each concentration), followed by 600 s dissociation time and analysis on both FC. The regeneration was performed by sequential injection of 10 mM NaOAc (pH 5.5) for 60 s, washing the needle using HBS-P+, injection of 10 mM NaOAc (pH 5.5) for 60 s, 600 s waiting, four injections of HBS-P+ (60 s), and a final 600 s waiting for stabilization. Blank runs using only buffer (HBS-P+) instead of the sample were carried out to obtain double-referenced chromatograms. Binding analyses were performed unless otherwise stated in a concentration range between 0.16–100 nM and 1.6–1000 nM (5-fold dilution series) and analyzed in triplicate. The data were analyzed using the Biacore Evaluation software 3.2.1. […] Data were fitted to a 1:1 binding model.

[3] = tested on: HT-1376-derived tumor xenograft model; assay: Small animal PET/CT imaging; set-up: species or system mice; details: mouse, in vivo
Protocol: All animal experiments were performed following the protocols evaluated and approved by the Landesdirektion Sachsen, Referat 25 – Veterinärwesen, Lebensmittelüberwachung and Pharmazie (09105 Chemnitz, Germany, ethics approval number: 25-5131/562/52). HT-1376- and 5637-derived tumor xenograft models were established in NMRI nude mice (Rj: NMRI-Foxn1nu/nu, Charles River Laboratories, Sulzfeld, Germany) by subcutaneous injection of 5 × 10^6 cells in 100 μL of PBS containing 50% (v/v) Matrigel (Corning Life Sciences, Amsterdam, The Netherlands).
When the tumor volume reached 200 mm^3, PET experiments with radiotracers were performed. Radiolabeling of the ligands was performed as described previously with an apparent molar activity of 25 MBq/nmol. The radioligand stock solution (pH 6.5 – 7.5) was diluted in 0.9% NaCl, and 200 μL containing ∼9 MBq ([…]) was injected per mouse intravenously into a lateral tail vein. For blocking of target-specific radioligand binding, 75 nmol of blocking substance (1d) was administered simultaneously with the radioligand. Coincidences were recorded continuously in a 2 h PET-scan starting with the injection. Additionally, a CT scan was performed for anatomical referencing and attenuation correction. PET/CT imaging, reconstruction, and tissue delineation were carried out as described previously.

Row | Compound | Hill coefficient n [1] | fold lower binding affinity compared to 1e [1] | kon ([2]; HBS-P+ pH 7.4, 25 °C) [M⁻¹ s⁻¹] | koff ([2]; pH 7.4, HBS-P+ pH 7.4, 25 °C) [s⁻¹] | further results
1 | CSCC[C@@H]1NC(=O)[C@@H]2CSCCC(=O)N3CN(CN(C3)C(=O)CCSC[C@H](N)C(=O)N3CCC[C@H]3C(=O)N[C@@H](Cc3cccc4ccccc34)C(=O)N[C@H](CC(=O)O)C(=O)N2)C(=O)CCSC[C@@H](C(N)=O)NC(=O)[C@H](Cc2c[nH]c3ccccc23)NC(=O)[C@@H]2C[C@@H](O)CN2C(=O)[C@@H]2CCCN2C(=O)[C@H]([C@@H](C)O)NC(=O)[C@H](CO)NC(=O)[C@H](Cc2c[nH]c3ccccc23)NC(=O)[C@H](CC(=O)O)NC(=O)[C@H](CCCCNC(=N)N)NC1=O [1c] | 2.12 | – | – | – | –
2 | CSCC[C@@H]1NC(=O)[C@@H]2CSCCC(=O)N3CN(CN(C3)C(=O)CCSC[C@H](NC(C)=O)C(=O)N3CCC[C@H]3C(=O)N[C@@H](Cc3cccc4ccccc34)C(=O)N[C@H](CC(=O)O)C(=O)N2)C(=O)CCSC[C@@H](C(N)=O)NC(=O)[C@H](Cc2c[nH]c3ccccc23)NC(=O)[C@@H]2C[C@@H](O)CN2C(=O)[C@@H]2CCCN2C(=O)[C@H]([C@@H](C)O)NC(=O)[C@H](CO)NC(=O)[C@H](Cc2c[nH]c3ccccc23)NC(=O)[C@H](CC(=O)O)NC(=O)[C@H](CCCCNC(=N)N)NC1=O [1d, reference compound] | 2.37 | – | – | – | –
3 | CSCC[C@@H]1NC(=O)[C@@H]2CSCCC(=O)N3CN(CN(C3)C(=O)CCSC[C@H](NC(=O)CN3CCN(CC(=O)O)CCN(CC(=O)O)CCN(CC(=O)O)CC3)C(=O)N3CCC[C@H]3C(=O)N[C@@H](Cc3cccc4ccccc34)C(=O)N[C@H](CC(=O)O)C(=O)N2)C(=O)CCSCC(C(N)=O)NC(=O)[C@H](Cc2c[nH]c3ccccc23)NC(=O)[C@@H]2C[C@@H](O)CN2C(=O)[C@@H]2CCCN2C(=O)[C@H]([C@@H](C)O)NC(=O)[C@H](CO)NC(=O)[C@H](Cc2c[nH]c3ccccc23)NC(=O)[C@H](CC(=O)O)NC(=O)[C@H](CCCCNC(=N)N)NC1=O (stereo partly shown) [1f] | 1.18 | 10 fold | 8.76e+06 | 0.0115 | Kd ([2]; HBS-P+ pH 7.4, 25 °C, single-cycle kinetics, 1:1 model, read-out: K d (SPR)): 1.31 nM
4 | CCCC[C@@H]1NC(=O)[C@@H]2CSCCC(=O)N3CN(CN(C3)C(=O)CCSC[C@H](NC(C)=O)C(=O)N3CCC[C@H]3C(=O)N[C@@H](Cc3cccc4ccccc34)C(=O)N[C@H](CC(=O)O)C(=O)N2)C(=O)CCSC[C@@H](C(N)=O)NC(=O)[C@H](Cc2c[nH]c3ccccc23)NC(=O)[C@@H]2C[C@@H](O)CN2C(=O)[C@@H]2CCCN2C(=O)[C@H]([C@@H](C)O)NC(=O)[C@H](CO)NC(=O)[C@H](Cc2c[nH]c3ccccc23)NC(=O)[C@H](CC(=O)O)NC(=O)[C@H](CCCCNC(=N)N)NC1=O [3b] (Ac-CP[1Nal][dD]C[Nle][hArg]DWSTP[Hyp]WC-NH2; linker 1-5-15 via TATA) | 1.80 | – | – | – | –
5 | CSCC[C@@H]1NC(=O)[C@@H]2CSCCC(=O)N3CN(CN(C3)C(=O)CCSC[C@H](NC(=O)CC[C@H](C(=O)O)N3CCN(CC(=O)O)CCN(CC(=O)O)CC3)C(=O)N3CCC[C@H]3C(=O)N[C@@H](Cc3cccc4ccccc34)C(=O)N[C@H](CC(=O)O)C(=O)N2)C(=O)CCSC[C@@H](C(N)=O)NC(=O)[C@H](Cc2c[nH]c3ccccc23)NC(=O)[C@@H]2C[C@@H](O)CN2C(=O)[C@@H]2CCCN2C(=O)[C@H]([C@@H](C)O)NC(=O)[C@H](CO)NC(=O)[C@H](Cc2c[nH]c3ccccc23)NC(=O)[C@H](CC(=O)O)NC(=O)[C@H](CCCCNC(=N)N)NC1=O [[^68Ga]Ga-1e] [metal not drawn] | – | – | – | – | Blood half life fast [3]: 1.51 ± 0.31 min; Blood half life slow [3]: 42.24 ± 4.20 min; Percent fast [%] [3]: 80.73 ±3.35%; body retention at 2 h p.i. [3]: 65%; time of highest tumor uptake [3]: 8.5 min
6 | COCC[C@@H]1NC(=O)[C@@H]2CSCCC(=O)N3CN(CN(C3)C(=O)CCSC[C@H](NC(=O)CC[C@H](C(=O)O)N3CCN(CC(=O)O)CCN(CC(=O)O)CC3)C(=O)N3CCC[C@H]3C(=O)N[C@@H](Cc3cccc4ccccc34)C(=O)N[C@H](CC(=O)O)C(=O)N2)C(=O)CCSC[C@@H](C(N)=O)NC(=O)[C@H](Cc2c[nH]c3ccccc23)NC(=O)[C@@H]2C[C@@H](O)CN2C(=O)[C@@H]2CCCN2C(=O)[C@H]([C@@H](C)O)NC(=O)[C@H](CO)NC(=O)[C@H](Cc2c[nH]c3ccccc23)NC(=O)[C@H](CC(=O)O)NC(=O)[C@H](CCCCNC(=N)N)NC1=O [[^68Ga]Ga-4] [metal not drawn] (X1-CP[1Nal][dD]C[hSer](Me)[hArg]DWSTP[Hyp]WC-NH2; linker 1-5-15 via TATA) | – | – | – | – | Percent fast [%] [3]: 78.47 ±3.76%; time of highest tumor uptake [3]: 8.5 min
7 | CCOC[C@@H]1NC(=O)[C@@H]2CSCCC(=O)N3CN(CN(C3)C(=O)CCSC[C@H](NC(=O)CC[C@H](C(=O)O)N3CCN(CC(=O)O)CCN(CC(=O)O)CC3)C(=O)N3CCC[C@H]3C(=O)N[C@@H](Cc3cccc4ccccc34)C(=O)N[C@H](CC(=O)O)C(=O)N2)C(=O)CCSC[C@@H](C(N)=O)NC(=O)[C@H](Cc2c[nH]c3ccccc23)NC(=O)[C@@H]2C[C@@H](O)CN2C(=O)[C@@H]2CCCN2C(=O)[C@H]([C@@H](C)O)NC(=O)[C@H](CO)NC(=O)[C@H](Cc2c[nH]c3ccccc23)NC(=O)[C@H](CC(=O)O)NC(=O)[C@H](CCCCNC(=N)N)NC1=O [compound 6] (X1-CP[1Nal][dD]CS(Et)[hArg]DWSTP[Hyp]WC-NH2; linker 1-5-15 via TATA) | 1.42 | approximately 10 fold | 3.86e+06 | 0.0247 | –
8 | CCSC[C@@H]1NC(=O)[C@@H]2CSCCC(=O)N3CN(CN(C3)C(=O)CCSC[C@H](NC(=O)CC[C@H](C(=O)O)N3CCN(CC(=O)O)CCN(CC(=O)O)CC3)C(=O)N3CCC[C@H]3C(=O)N[C@@H](Cc3cccc4ccccc34)C(=O)N[C@H](CC(=O)O)C(=O)N2)C(=O)CCSC[C@@H](C(N)=O)NC(=O)[C@H](Cc2c[nH]c3ccccc23)NC(=O)[C@@H]2C[C@@H](O)CN2C(=O)[C@@H]2CCCN2C(=O)[C@H]([C@@H](C)O)NC(=O)[C@H](CO)NC(=O)[C@H](Cc2c[nH]c3ccccc23)NC(=O)[C@H](CC(=O)O)NC(=O)[C@H](CCCCNC(=N)N)NC1=O [compound 7] (X1-CP[1Nal][dD]CC(Et)[hArg]DWSTP[Hyp]WC-NH2; linker 1-5-15 via TATA) | 1.93 | approximately 10 fold | 4.61e+06 | – | koff ([2]; HBS-P+ pH 7.4, 25 °C): 0.0268 s⁻¹
9 | CSCC[C@@H]1NC(=O)[C@@H]2CSCCC(=O)N3CN(CN(C3)C(=O)CCSC[C@H](NC(=O)CC[C@H](C(=O)O)N3CCN(CC(=O)O)CCN(CC(=O)O)CC3)C(=O)N3CCC[C@H]3C(=O)N[C@@H](Cc3cccc4ccccc34)C(=O)N[C@H](CC(=O)O)C(=O)N2)C(=O)CCSC[C@@H](C(N)=O)NC(=O)[C@H](Cc2c[nH]c3ccccc23)NC(=O)[C@@H]2C[C@@H](O)CN2C(=O)[C@@H]2CCCN2C(=O)[C@H]([C@@H](C)O)NC(=O)[C@H](CO)NC(=O)[C@H](Cc2c[nH]c3ccccc23)NC(=O)[C@H](CC(=O)O)NC(=O)[C@H](CCCCNC(=N)N)NC1=O [natGa-1e, metal not drawn] | – | – | 1.1e+06 | 0.0026 | –

— article PMC12557367, ““Precision on Two Wheels”–Structural Refinement of ^64Cu- and ^68Ga-Labeled Bicyclic Peptides Targeting Nectin‑4 for Improved Tumor Imaging: From Preclinical Development to First-in-Human Application” (Journal of Medicinal Chemistry, 2025)
